Measurements: PMC4891657, “Orexin 2 Receptor Antagonism is Sufficient to Promote NREM and REM Sleep from Mouse to Man” (Scientific Reports, 2016)
Changes are numbered by the printed parent chain.

How the values were obtained:
[1] = target: T1, OX1R (Mus musculus, UniProt P58307); test: Inhibition of orexin-peptide-A-induced calcium mobilization in CHO cells, mouse OX1R; type: cell-based
T1 construct: expressed in transfected cells; host or cells: CHO-K1
T1 sequence (P58307 1-416): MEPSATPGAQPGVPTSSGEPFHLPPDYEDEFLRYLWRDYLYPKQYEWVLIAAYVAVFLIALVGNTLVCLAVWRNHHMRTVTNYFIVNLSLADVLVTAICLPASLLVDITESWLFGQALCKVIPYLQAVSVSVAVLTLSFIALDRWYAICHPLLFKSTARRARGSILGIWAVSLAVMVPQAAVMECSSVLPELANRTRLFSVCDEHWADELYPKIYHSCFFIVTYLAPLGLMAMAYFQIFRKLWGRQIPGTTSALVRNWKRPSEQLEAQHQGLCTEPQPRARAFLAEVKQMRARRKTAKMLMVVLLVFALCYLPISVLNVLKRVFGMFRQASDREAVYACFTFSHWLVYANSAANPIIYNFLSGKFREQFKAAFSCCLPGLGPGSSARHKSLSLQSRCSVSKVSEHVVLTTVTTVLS
Experimental: (§1) MK-1064 was evaluated for its ability to inhibit orexin-peptide-A-induced calcium mobilization in CHO cell lines separately expressing OX1R and OX2R from mice, rats, rabbits, dogs, rhesus monkeys and humans.
(§2) Binding and functional blockade of OX1R and OX2R with MK-1064 relative to other 2-SORAs and the DORA, MK-6096, were assessed using membranes from Chinese hamster ovary (CHO)-K1 cells (American Type Tissue Collection, Manassas, VA) transfected to express human, mouse, rat, rabbit, dog, or rhesus monkey OX1R or OX2R receptors, as described previously. The kinetics of binding to human OX2R was assessed by radioligand displacement on CHO-K1 cells expressing the receptor. […] The ON rate analysis was performed by presoaking GF/B filters in 0.3% polyethyleneimine (Sigma) using a Skatron 12-well cell harvester and cold buffer at the indicated time points after addition. For OFF rate determination, binding reactions were allowed to proceed to equilibrium and terminated with 1000x [Kd] of unlabeled antagonist and filtered as above at pre-determined time points. Ultima Gold^TM (PerkinElmer 6013327) scintillation cocktail was added to each filter disc and counted on a PerkinElmer TriCarb 2910 scintillation counter. Data were analyzed using GraphPad® Prism v 6.04 (San Diego, CA, USA). The KON rate was determined according to the equation, KON = (KOBS − KOFF)/[ligand].

[2] = target: T2, OX1R (Oryctolagus cuniculus, UniProt G1SPJ3); test: Radio-ligand displacement binding, CHO-K1 membranes, rabbit OX1R; conditions: read-out: OX1R affinity (Ki)
T2 sequence (G1SPJ3 1-416): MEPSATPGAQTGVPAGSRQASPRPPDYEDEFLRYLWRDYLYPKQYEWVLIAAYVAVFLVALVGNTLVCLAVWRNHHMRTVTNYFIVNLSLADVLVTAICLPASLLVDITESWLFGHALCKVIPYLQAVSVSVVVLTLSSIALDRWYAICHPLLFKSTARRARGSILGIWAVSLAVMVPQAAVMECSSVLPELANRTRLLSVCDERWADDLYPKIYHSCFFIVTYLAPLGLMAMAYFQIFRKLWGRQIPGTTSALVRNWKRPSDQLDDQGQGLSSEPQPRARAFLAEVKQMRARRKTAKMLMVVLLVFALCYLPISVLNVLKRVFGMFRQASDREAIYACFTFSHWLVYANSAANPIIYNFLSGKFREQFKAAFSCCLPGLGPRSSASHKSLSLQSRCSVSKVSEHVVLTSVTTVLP
Experimental: as §1, §2

[3] = target: T3, hOX1R (Homo sapiens, UniProt O43613); test: Inhibition of orexin-peptide-A-induced calcium mobilization in CHO cells, human OX1R; type: cell-based
T3 construct: expressed in transfected cells; host or cells: CHO-K1
T3 sequence (O43613 1-425): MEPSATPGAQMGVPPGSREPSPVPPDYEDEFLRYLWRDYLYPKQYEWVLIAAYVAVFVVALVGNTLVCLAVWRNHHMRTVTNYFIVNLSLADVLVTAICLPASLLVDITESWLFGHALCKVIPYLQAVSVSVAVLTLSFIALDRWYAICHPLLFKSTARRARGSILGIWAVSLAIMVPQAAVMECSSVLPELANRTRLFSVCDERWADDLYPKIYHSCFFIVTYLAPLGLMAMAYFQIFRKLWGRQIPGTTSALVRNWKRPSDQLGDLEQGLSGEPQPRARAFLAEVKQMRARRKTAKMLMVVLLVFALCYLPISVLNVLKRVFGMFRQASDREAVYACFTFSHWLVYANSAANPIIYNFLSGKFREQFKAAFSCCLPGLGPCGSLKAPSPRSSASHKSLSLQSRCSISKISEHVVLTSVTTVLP
Experimental: as §1, §2

[4] = target: T2, OX1R; test: Inhibition of orexin-peptide-A-induced calcium mobilization in CHO cells, rabbit OX1R; type: cell-based
Experimental: as §1, §2

[5] = target: T4, OX1R (Canis lupus familiaris, UniProt A0A8I3RSX8); test: Radio-ligand displacement binding, CHO-K1 membranes, dog OX1R; conditions: read-out: OX1R affinity (Ki)
T4 sequence (A0A8I3RSX8 1-427): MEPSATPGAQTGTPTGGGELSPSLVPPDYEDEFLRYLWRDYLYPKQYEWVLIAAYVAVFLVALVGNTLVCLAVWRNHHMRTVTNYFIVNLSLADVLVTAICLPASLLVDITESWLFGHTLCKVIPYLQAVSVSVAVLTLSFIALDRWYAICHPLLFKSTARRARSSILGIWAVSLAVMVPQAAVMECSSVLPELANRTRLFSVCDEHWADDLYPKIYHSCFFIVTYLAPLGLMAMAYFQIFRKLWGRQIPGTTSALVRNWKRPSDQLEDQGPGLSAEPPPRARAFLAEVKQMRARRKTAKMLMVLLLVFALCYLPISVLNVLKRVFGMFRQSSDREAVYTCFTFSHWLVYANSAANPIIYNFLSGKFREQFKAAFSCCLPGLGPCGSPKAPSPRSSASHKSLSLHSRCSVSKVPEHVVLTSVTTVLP
Experimental: as §1, §2

[6] = target: T5, OX1R (Macaca mulatta, UniProt F7FE63); test: Inhibition of orexin-peptide-A-induced calcium mobilization in CHO cells, rhesus OX1R; type: cell-based, rhesus monkey
T5 sequence (F7FE63 1-425): T3 sequence (O43613 1-425) with G12R, P15T, V58L, A102V, A174T, I175V, E275Q, L380P, I408V, I411L
Experimental: as §1, §2

[7] = target: T5, OX1R; test: Radio-ligand displacement binding, CHO-K1 membranes, rhesus OX1R; design: species or system rhesus monkey; conditions: read-out: OX1R affinity (Ki)
Experimental: as §1, §2

SMILES	Kb [1] [nM]	Ki [2] [nM]	Kb [3] [nM]	Kb [4] [nM]	Ki [5] [nM]	Kb [6] [nM]	Ki [7] [nM]
COc1ccc(CNC(=O)c2cc(-c3cncc(Cl)c3)cnc2-c2ccccn2)nc1OC [MK-1064, 5″-chloro-N-[(5,6-dimethoxypyridin-2-yl)methyl]-2,2′:5′, 3″-terpyridine-3′-carbo xamide]	10300	2440	1870	7370	1300	3370	815
COc1ccc(CNC(=O)c2cc(-c3cncc(C)c3)ncc2-c2nccs2)nc1OC [MK-3697]	27200	4740		32100	3100	21400	2180
Cc1ccc(-c2ncccn2)c(C(=O)N2C[C@H](COc3ccc(F)cn3)CC[C@H]2C)c1 [MK-6096]	9	2.6	11	13	2.7	21	12.5
COc1ccc(CNC(=O)c2cc(-c3cc(Cl)cc(Cl)c3)cnc2-c2cccnc2)cc1OC [2-SORA-18]	208	241	161	496	86	141	132
COc1ccc(CNC(=O)c2cc(-c3cncc(C)c3)ncc2-c2ccccc2)nc1OC [2-SORA-7]	7950	4390	4360	16800	1800	3650	1340
